Values joined by “and” are separate entries in the source; they are usually repeats but may differ in a detail not shown here. Equal values may be shown once.

The test system of data set [1] is DCT-LacZ mice. As to the kind of experiment: DCT-LacZ (X-gal) staining of skin, hair follicles containing melanocyte progenitors. The data set is classed as in vivo, mouse. As to conditions: for percentage of hair follicles containing DCT-LacZ+ cells, Average: 11.2 grays irradiation, rapamycin 4 mg/kg/day i.p.; for percentage of hair follicles containing DCT-LacZ+ cells, individual mouse: individual animals (Mouse 1-4), 4 mg/kg/day i.p., 4 mg/kg/day. The protocol: Mice: DCT-LacZ mice were backcrossed for 3 generations on a C57BL background.
Irradiation and Bone Marrow Transplant: Adult recipient mice were irradiated using a gamma cell irradiator. Mice received two doses of 560 rads each delivered 3 hours apart (FIGS. 1-4, FIG. 7, Table 1). Mice received 1,000,000 whole bone marrow cells isolated from a C57BL donor (FIGS. 1-4, FIG. 7, Table 1). Bone marrow cells were suspended in HBSS free with 2% Bovine Serum and injected via the retro orbital venous sinus. Where indicated, mice were sublethally irradiated with 650 rads and not subjected to bone marrow transplant (FIG. 6).
(§1) Rapamycin: Rapamycin (LC Laboratories) was administered by intraperitoneal injection. Rapamycin was reconstituted in ethanol (10 mg/ml or 1 mg/ml) and diluted into a solution of 5% Tween-80 (Sigma) and 5% PEG-400 (Hampton Research). The final volume injected was […]. Dosing and administration regimes were as indicated in Example II.
(§2) DCT-LacZ Staining A 2×2 cm patch of skin was harvested with dissecting scissors from euthanized DCT-LacZ mice. The skin patch was washed in phosphate buffer (0.5M Na2HPO4, 0.5M NaH2PO4, 2 mM MgC12, 0.02% NP-40, 0.01% sodium deoxycolate), and then fixed on ice in 0.2% glutaraldehyde in phosphate buffer for 30 minutes. While being fixed, the skin samples were microwaved in fixation solution on ice for 20 seconds. After fixation, the samples were washed and the adipose layer was removed by dissection. After another washing, the skin samples were stained in 1 mg/ml X-gal in phosphate buffer for 2.5 hours. After staining, samples were washed and roughly 1 mm wide sections were made manually using a razor blade. Sections were mounted in 70% glycerol.
To better understand the effects of rapamycin on melanocyte progenitors, transplantation experiments in mice bearing a DCT-LacZ transgene, which is expressed by melanocyte progenitors in hair follicles, were conducted (see, e.g., Mackenzie, M. A., et al., Dev Biol 192, 99-107 (1997); Nishimura, E. K., et al., Nature 416, 854-60 (2002); each herein incorporated by reference in their entireties). This transgene expresses the bacterial LacZ gene under the control of the melanocyte specific promoter for the gene dopachrome tautomerase. These mice were used as recipients in similar transplants where 1 million whole bone marrow cells were irradiated and transplanted. The mice were treated with 0.4 mg/kg of rapamycin every other day for the first two weeks and then with 4 mg/kg/day after that. These mice were sacrificed at regular intervals, and their skin harvested and stained with X-gal.
Animals were sacrificed at each time point and stained with X-gal. The percentage of hair follicles containing DCT-LacZ+ cells was quantified.

For data set [2], the system named is wild-type nonirradiated mice. As to the kind of experiment: Depilation-induced hair cycle, skin pigmentation onset. The data set is classed as in vivo, mouse. Conditions: 4 mg/kg starting the day after depilation. The protocol:
as §1
Depilation: Mice were anesthetized by intraperitoneal injection of 80 mg/kg of ketamine and 4 mg/kg of […] dissolved in HBSS. Final injection volume was 200 μl. The dorsal hair of the mice was then shaved with conventional clippers, and a commercial depilatory cream (Veet®) was applied liberally to an area of approximately 1.5×1.5 cm. After 5 minutes, the cream was washed off the mouse using warm water, and the mouse was gently dried using paper towels.
In analyzing the frequency of hair follicles that contained X-gal+ melanocytes, it became apparent that the hair follicles of rapamycin treated animals were less frequently in mature stages of the hair cycle (see FIG. 4). […] As such, a region of the lower back of wild-type nonirradiated mice was shaved and depilated. Depilation induced a new hair growth cycle, thereby permitting to test if in this context rapamycin could prevent the onset of or lengthen the duration of the hair cycle. […]

In data set [3] the test system is DCT-LacZ mice. As to the kind of experiment: Hair cycle stage (anagen) in skin sections of irradiated, transplanted DCT-LacZ mice. As to conditions: 2/18 rapamycin treated animals versus 56% (10/18) vehicle; P=0.0001. The data set is classed as in vivo, mouse. The protocol:
as §2
To better understand the effects of rapamycin on melanocyte progenitors, transplantation experiments in mice bearing a DCT-LacZ transgene, which is expressed by melanocyte progenitors in hair follicles, were conducted (see, e.g., Mackenzie, M. A., et al., Dev Biol 192, 99-107 (1997); Nishimura, E. K., et al., Nature 416, 854-60 (2002); each herein incorporated by reference in their entireties). This transgene expresses the bacterial LacZ gene under the control of the melanocyte specific promoter for the gene dopachrome tautomerase. […]

In the next data set the test system is hirsutism. As to conditions: hirsutism patients; cited from earlier work.

In the case of `CO[C@H]1C[C@@H]2CC[C@@H](C)[C@@](O)(O2)C(=O)C(=O)N2CCCC[C@H]2C(=O)O[C@H]([C@H](C)C[C@@H]2CC[C@@H](O)[C@H](OC)C2)CC(=O)[C@H](C)/C=C(\C)[C@@H](O)[C@@H](OC)C(=O)[C@H](C)C[C@H](C)/C=C/C=C/C=C/1C` [Rapamycin], the “percentage of hair follicles containing DCT-LacZ+ cells, Average” value stood at 61.0% in the data set on DCT-LacZ mice [1] (Week 8), 34.1% in the data set with DCT-LacZ mice [1] (Week 10), 48.3% with DCT-LacZ mice [1] (Week 12) and 40.5% with DCT-LacZ mice [1] (Week 14). Besides, the “percentage of hair follicles containing DCT-LacZ+ cells, individual mouse” value with DCT-LacZ mice [1] (Week 8) is 77.0% and 45.0%; with DCT-LacZ mice [1] (Week 10) it was 19.3% and 22.0% and 42.0% and 53.0%; in the data set with DCT-LacZ mice [1] (Week 12) it was 54.0% and 39.0% and 52.0%; in the data set with DCT-LacZ mice [1] (Week 14), 53.0% and 42.0% and 17.0% and 50.0%. Besides, the “days until pigmentation was visible in skin” value in data set [2] (n=5, vehicle 16.7 days, p=0.04) worked out at 25.2 days. Further, the “delay of change in skin color (progression through anagen) versus vehicle” value in data set [2] (on average) is on record as 8 days. Moreover, the “animals with hairs in anagen” value with DCT-LacZ mice [3] is listed as 11%.

Turning to `NCCCC(N)(C(=O)O)C(F)F` (stereo not drawn) [Eflornithine], the side effects entry in the data set on hirsutism is on record as “minor skin irritation, folliculitis, stinging, burning, tingling, acne, and/or rash”.
